In the NIST ThermoML archive (doi:10.1021/acs.jced.7b00396):
± gives the expanded uncertainty stated by the source.

Details: for mass density: 700 kPa, Gamma attenuation method; for viscosity: Capillary tube (Ostwald / Ubbelohde) method

C1C[C@@H]2[C@H]3CC[C@H](C3)[C@@H]2C1 [exo-tetrahydrodicyclopentadiene]
Details	mass density [kg/m3]
239.8 K, Liquid	965.9 ± 15
266.2 K, Liquid	955.9 ± 15
290.9 K, Liquid	945.8 ± 15
307 K, Liquid	936.3 ± 15
337.1 K, Liquid	917.3 ± 15
368.4 K, Liquid	890 ± 15
391.9 K, Liquid	877.6 ± 15
428.7 K, Liquid	857.3 ± 15
468.5 K, Liquid	818.7 ± 16
483.8 K, Liquid	779.5 ± 16
510 K, Liquid	759.3 ± 15
532.4 K, Liquid	737.7 ± 17
562.1 K, Liquid	646.3 ± 18
603.4 K, Gas	25.5 ± 2.7
651.6 K, Gas	22.9 ± 2.7
682.7 K, Gas	29.4 ± 2.7
730.2 K, Gas	19.5 ± 2.8
744.7 K, Gas	19.7 ± 2.8
771.9 K, Gas	26.4 ± 2.7
803.3 K, Gas	24.4 ± 2.7
833 K, Gas	25.4 ± 2.7
873.3 K, Gas	24.4 ± 2.7

Details	viscosity [mPa·s]
242.7 K, 690 kPa, Liquid	10.69 ± 1.1
242.7 K, 1700 kPa, Liquid	10.73 ± 1.1
242.7 K, 3000 kPa, Liquid	10.8 ± 1.1
242.7 K, 6000 kPa, Liquid	10.82 ± 1.1
262.4 K, 690 kPa, Liquid	5.78 ± 0.58
262.4 K, 1700 kPa, Liquid	5.82 ± 0.59
262.5 K, 3000 kPa, Liquid	5.828 ± 0.59
262.5 K, 6000 kPa, Liquid	5.888 ± 0.59
303.1 K, 3000 kPa, Liquid	2.49 ± 0.25
303.1 K, 6000 kPa, Liquid	2.498 ± 0.25
303.2 K, 690 kPa, Liquid	2.479 ± 0.25
303.2 K, 1700 kPa, Liquid	2.483 ± 0.25
313.1 K, 690 kPa, Liquid	1.996 ± 0.2
313.2 K, 1700 kPa, Liquid	2.026 ± 0.2
313.2 K, 3000 kPa, Liquid	2.146 ± 0.22
313.2 K, 6000 kPa, Liquid	2.186 ± 0.22
333.1 K, 3000 kPa, Liquid	1.709 ± 0.17
333.1 K, 6000 kPa, Liquid	1.758 ± 0.18
333.2 K, 690 kPa, Liquid	1.68 ± 0.17
333.2 K, 1700 kPa, Liquid	1.701 ± 0.17
353.1 K, 690 kPa, Liquid	1.142 ± 0.11
353.1 K, 3000 kPa, Liquid	1.234 ± 0.12
353.1 K, 6000 kPa, Liquid	1.268 ± 0.13
353.2 K, 1700 kPa, Liquid	1.165 ± 0.12
373.1 K, 690 kPa, Liquid	0.8868 ± 0.089
373.1 K, 1700 kPa, Liquid	0.9068 ± 0.091
373.2 K, 3000 kPa, Liquid	0.9467 ± 0.095
373.2 K, 6000 kPa, Liquid	0.9789 ± 0.098
393 K, 3000 kPa, Liquid	0.7365 ± 0.074
393.1 K, 1700 kPa, Liquid	0.7265 ± 0.073
393.2 K, 690 kPa, Liquid	0.7065 ± 0.071
393.4 K, 6000 kPa, Liquid	0.7661 ± 0.077
412.9 K, 3000 kPa, Liquid	0.5811 ± 0.058
413.1 K, 1700 kPa, Liquid	0.5518 ± 0.055
413.1 K, 6000 kPa, Liquid	0.6028 ± 0.06
413.2 K, 690 kPa, Liquid	0.5267 ± 0.053
433.1 K, 1700 kPa, Liquid	0.4372 ± 0.044
433.1 K, 3000 kPa, Liquid	0.4776 ± 0.048
433.2 K, 690 kPa, Liquid	0.4172 ± 0.042
433.2 K, 6000 kPa, Liquid	0.4992 ± 0.05
453.1 K, 690 kPa, Liquid	0.3605 ± 0.036
453.1 K, 1700 kPa, Liquid	0.4005 ± 0.04
453.1 K, 6000 kPa, Liquid	0.4321 ± 0.043
453.2 K, 3000 kPa, Liquid	0.3903 ± 0.039
473.1 K, 6000 kPa, Liquid	0.3675 ± 0.037
473.2 K, 690 kPa, Liquid	0.3123 ± 0.031
473.2 K, 1700 kPa, Liquid	0.3003 ± 0.03
473.2 K, 3000 kPa, Liquid	0.3204 ± 0.032
493.1 K, 6000 kPa, Liquid	0.3055 ± 0.031
493.2 K, 690 kPa, Liquid	0.2255 ± 0.023
493.2 K, 1700 kPa, Liquid	0.2552 ± 0.026
493.2 K, 3000 kPa, Liquid	0.2752 ± 0.028
513.1 K, 6000 kPa, Liquid	0.2964 ± 0.03
513.2 K, 690 kPa, Liquid	0.2054 ± 0.021
513.2 K, 1700 kPa, Liquid	0.2204 ± 0.022
513.2 K, 3000 kPa, Liquid	0.2264 ± 0.023
533.2 K, 690 kPa, Liquid	0.1602 ± 0.016
533.2 K, 1700 kPa, Liquid	0.1809 ± 0.018
533.4 K, 3000 kPa, Liquid	0.1837 ± 0.018
533.4 K, 6000 kPa, Liquid	0.2139 ± 0.022
552.9 K, 690 kPa, Liquid	0.1309 ± 0.013
552.9 K, 1700 kPa, Liquid	0.1509 ± 0.015
553.3 K, 6000 kPa, Liquid	0.1899 ± 0.019
553.5 K, 3000 kPa, Liquid	0.1502 ± 0.015
573.3 K, 6000 kPa, Liquid	0.1554 ± 0.016
573.4 K, 690 kPa, Gas	0.0304 ± 0.0026
573.4 K, 1700 kPa, Liquid	0.1254 ± 0.013
573.4 K, 3000 kPa, Liquid	0.1354 ± 0.014
593.2 K, 690 kPa, Gas	0.0324 ± 0.0026
593.2 K, 1700 kPa, Gas	0.0394 ± 0.0027
593.2 K, 6000 kPa, Liquid	0.1453 ± 0.015
593.3 K, 3000 kPa, Gas	0.1154 ± 0.0032
613 K, 3000 kPa, Gas	0.1016 ± 0.0031
613.4 K, 6000 kPa, Liquid	0.1316 ± 0.013
613.6 K, 690 kPa, Gas	0.0288 ± 0.0026
613.6 K, 1700 kPa, Gas	0.0389 ± 0.0027
633.3 K, 3000 kPa, Gas	0.0977 ± 0.003
633.3 K, 6000 kPa, Liquid	0.1177 ± 0.012
633.4 K, 690 kPa, Gas	0.0338 ± 0.0026
633.4 K, 1700 kPa, Gas	0.0371 ± 0.0026
653.3 K, 690 kPa, Gas	0.0277 ± 0.0026
653.3 K, 1700 kPa, Gas	0.0328 ± 0.0026
653.4 K, 3000 kPa, Gas	0.0898 ± 0.003
653.5 K, 6000 kPa, Liquid	0.0991 ± 0.01
672.3 K, 3000 kPa, Gas	0.0804 ± 0.0029
673.2 K, 6000 kPa, Liquid	0.0956 ± 0.0096
673.3 K, 690 kPa, Gas	0.0265 ± 0.0026
673.3 K, 1700 kPa, Gas	0.0302 ± 0.0026
692.5 K, 690 kPa, Gas	0.0311 ± 0.0026
692.5 K, 1700 kPa, Gas	0.0321 ± 0.0026
692.5 K, 3000 kPa, Gas	0.0768 ± 0.0028
692.5 K, 6000 kPa, Liquid	0.0927 ± 0.0093
713.8 K, 690 kPa, Gas	0.0276 ± 0.0026
713.8 K, 1700 kPa, Gas	0.0294 ± 0.0026
713.8 K, 3000 kPa, Gas	0.0689 ± 0.0027
713.8 K, 6000 kPa, Gas	0.0889 ± 0.0029
734 K, 690 kPa, Gas	0.0303 ± 0.0026
734 K, 1700 kPa, Gas	0.0324 ± 0.0026
734 K, 3000 kPa, Gas	0.0645 ± 0.0027
734 K, 6000 kPa, Gas	0.0844 ± 0.0028
753.3 K, 690 kPa, Gas	0.0324 ± 0.0026
753.3 K, 1700 kPa, Gas	0.0352 ± 0.0026
753.3 K, 3000 kPa, Gas	0.0628 ± 0.0027
753.3 K, 6000 kPa, Gas	0.0828 ± 0.0028

CCCCCCCC [octane]
5100 kPa, Liquid
Details	viscosity [mPa·s]
303.2 K	0.5014 ± 0.0046
353.1 K	0.3078 ± 0.0037
403.2 K	0.207 ± 0.0031
453.1 K	0.1465 ± 0.0028
503 K	0.1049 ± 0.0027
553.4 K	0.0692 ± 0.0026
